Experiments:
[1] = system: Capan-2 xenografts; settings: day 1 versus day 8 after injection; single dose; listed as DOTA-integrin αvβ6 knottin
[2] = target: T1, integrin αvβ6 (BxPC-3 cells) (Homo sapiens, UniProt P06756+P18564); test: Competition binding assay, BxPC-3; settings: BxPC-3
T1 construct: endogenous in cells; host or cells: BxPC-3 (whole adherent cells)
Description: (§1) The reaction volume was made up to 30 µl with water. The reaction was carried out for 10 minutes at 80°C.
(§2) For competitive radioligand binding assay, approximately 50,000 cells (BxPC-3 or Capan-2) per well were seeded in a 96 well plate incubated overnight at 37°C. […] After 2 hours of incubation, cells were washed for 2-3 times with ice-cold washing buffer (50 mM Tris-HCl, pH 7.4, 125 mM NaCl, 0.05% BSA) and lysed with 1 N NaOH (80 µl/well). The lysed cells were transferred to vials and measured in a gamma counter (Wallac 1470 Wizard, Perkin Elmer, Waltham, MA, USA). Obtained cpm values were plotted with GraphPad Prism and the data fitted using nonlinear regression (one site - fit Ki, one site - fit logIC50).
(§3) All statistical analyses were performed using GraphPad Prism 5.04. IC50 values were determined by nonlinear sigmoidal curve fitting with variable slope setting. All presented data are based on independent experiments. Numerical data for this study have been deposited in an open data repository for public access: http://doi.org/10.5281/zenodo.4362503.

[3] = target: T2, integrin αvβ6 (Capan-2 cells) (Homo sapiens, UniProt P06756+P18564); test: Competition binding assay, Capan-2
T2 construct: endogenous in cells; host or cells: Capan-2 (whole adherent cells)
T2 sequence (P06756 31-889 limits assumed): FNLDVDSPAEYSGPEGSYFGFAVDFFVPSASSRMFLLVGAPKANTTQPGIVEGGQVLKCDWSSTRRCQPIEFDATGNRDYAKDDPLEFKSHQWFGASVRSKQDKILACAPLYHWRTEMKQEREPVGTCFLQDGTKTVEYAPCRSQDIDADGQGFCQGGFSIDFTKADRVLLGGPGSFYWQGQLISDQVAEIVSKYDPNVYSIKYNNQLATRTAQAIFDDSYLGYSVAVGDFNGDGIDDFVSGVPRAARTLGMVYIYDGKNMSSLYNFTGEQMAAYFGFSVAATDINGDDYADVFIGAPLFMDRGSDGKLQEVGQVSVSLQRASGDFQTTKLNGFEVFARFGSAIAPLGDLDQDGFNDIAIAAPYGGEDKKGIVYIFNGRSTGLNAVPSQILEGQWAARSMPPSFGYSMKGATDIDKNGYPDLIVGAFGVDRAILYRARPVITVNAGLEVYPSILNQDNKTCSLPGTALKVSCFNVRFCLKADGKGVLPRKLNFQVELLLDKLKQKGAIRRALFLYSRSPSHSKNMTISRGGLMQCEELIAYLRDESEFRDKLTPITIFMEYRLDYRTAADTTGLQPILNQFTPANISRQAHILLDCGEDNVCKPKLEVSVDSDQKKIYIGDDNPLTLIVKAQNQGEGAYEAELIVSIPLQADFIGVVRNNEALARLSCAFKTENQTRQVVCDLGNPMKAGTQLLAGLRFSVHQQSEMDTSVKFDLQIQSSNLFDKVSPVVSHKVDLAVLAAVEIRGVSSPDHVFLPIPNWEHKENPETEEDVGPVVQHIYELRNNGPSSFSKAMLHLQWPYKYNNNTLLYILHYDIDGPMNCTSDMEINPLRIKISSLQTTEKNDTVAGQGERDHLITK
T2 sequence (P06756 891-1048 partner limits assumed): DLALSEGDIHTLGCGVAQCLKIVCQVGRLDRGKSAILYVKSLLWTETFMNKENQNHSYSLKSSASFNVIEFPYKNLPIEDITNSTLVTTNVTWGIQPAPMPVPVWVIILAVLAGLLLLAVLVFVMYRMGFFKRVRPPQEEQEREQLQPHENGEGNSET
T2 sequence (P18564 22-788): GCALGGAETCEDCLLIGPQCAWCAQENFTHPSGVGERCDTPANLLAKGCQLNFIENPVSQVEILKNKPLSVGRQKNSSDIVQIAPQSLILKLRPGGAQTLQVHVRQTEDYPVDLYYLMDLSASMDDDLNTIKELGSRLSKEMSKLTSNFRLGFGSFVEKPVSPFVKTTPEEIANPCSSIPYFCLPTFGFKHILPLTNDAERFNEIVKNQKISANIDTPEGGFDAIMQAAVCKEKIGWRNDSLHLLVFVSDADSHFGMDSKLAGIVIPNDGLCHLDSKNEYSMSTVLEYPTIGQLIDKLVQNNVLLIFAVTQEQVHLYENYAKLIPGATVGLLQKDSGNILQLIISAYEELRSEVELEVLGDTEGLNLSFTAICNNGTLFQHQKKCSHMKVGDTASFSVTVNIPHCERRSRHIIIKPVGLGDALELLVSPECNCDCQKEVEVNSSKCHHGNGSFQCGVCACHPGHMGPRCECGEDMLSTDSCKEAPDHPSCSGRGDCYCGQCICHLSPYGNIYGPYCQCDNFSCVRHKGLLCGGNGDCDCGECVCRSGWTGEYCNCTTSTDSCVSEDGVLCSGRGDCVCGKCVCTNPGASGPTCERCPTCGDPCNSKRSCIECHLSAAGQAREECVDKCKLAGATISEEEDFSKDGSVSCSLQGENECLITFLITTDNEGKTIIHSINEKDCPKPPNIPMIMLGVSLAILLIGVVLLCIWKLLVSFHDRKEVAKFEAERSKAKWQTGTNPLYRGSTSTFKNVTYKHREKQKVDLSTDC
Description: as §1, §2, §3

[4] = cited from earlier work
[5] = system: integrin αvβ6; settings: cited from earlier work
From the text: Cystine knot peptides (knottins) represent small peptides of approximately 4 kDa with three threaded disulfide bonds that form a rigid topological knot constraining the peptide’s conformational flexibility. Such a structural motif is known as a cystine knot ([21], [22]). One of the advantages of knottins is the high variability of backbone residues that may be used to modulate tumor and kidney uptake ([23]). Knottins are well suited for in vivo tumor-targeting applications as their disulfide-bonded core confers outstanding thermal stability and resistance against proteolytic degradation; moreo ...

[6] = displacement of ^125I-DOTA-integrin αvβ6 knottin (100,000 cpm), 2 h, pH 7.4, mean ± S.E.M. (3 ≤ n ≤ 4), read-out: Inhibitory constant (Ki)

T1 sequence (P06756 31-889 limits assumed): as the sequence (P06756 31-889 limits assumed) above
T1 sequence (P06756 891-1048 partner limits assumed): as the sequence (P06756 891-1048 partner limits assumed) above
T1 sequence (P18564 22-788): as the sequence (P18564 22-788) above

## CC[C@H](C)[C@@H]1NC(=O)[C@@H](NC(=O)CNC(=O)CN2CCN(CC(=O)O)CCN(CC(=O)O)CCN(CC(=O)O)CC2)CSSC[C@@H]2NC(=O)[C@H](C)NC(=O)CNC(=O)[C@@H]3CCCN3C(=O)[C@@H]3CSSC[C@@H](C(=O)NCC(=O)O)NC(=O)[C@H](Cc4ccc(O)cc4)NC(=O)CNC(=O)[C@H](CC(N)=O)NC(=O)CNC(=O)[C@H](CCCNC(=N)N)NC(=O)[C@H](CSSC[C@H](NC(=O)[C@H](CCCNC(=N)N)NC(=O)[C@H](Cc4ccccc4)NC(=O)[C@H](CC(C)C)NC(=O)[C@H](CC(C)C)NC(=O)[C@H]([C@@H](C)O)NC(=O)CNC(=O)[C@H](CC(C)C)NC(=O)[C@H](CC(=O)O)NC(=O)[C@H]([C@@H](C)O)NC(=O)[C@H](CCCNC(=N)N)NC(=O)CNC(=O)[C@H](CC(N)=O)NC(=O)[C@H](CC(C)C)NC1=O)C(=O)N[C@@H](CCCNC(=N)N)C(=O)N[C@@H](CCCNC(=N)N)C(=O)N[C@@H](CC(=O)O)C(=O)N[C@@H](CO)C(=O)N[C@@H](CC(=O)O)C(=O)N3)NC(=O)[C@H]([C@@H](C)CC)NC2=O [DOTA knottin]
[1]
  Tissue structure of xenografts (H&E): no significant impact was observed
[2]; [6]
  Ki: 1.69 ± 1.3 nM
[3]; [6]
  Ki: 9.46 ± 5.21 nM

## CC[C@H](C)[C@@H]1NC(=O)[C@@H](NC(=O)CNC(=O)CN2CCN(CC(=O)O)CCN(CC(=O)O)CCN(CC(=O)O)CC2)CSSC[C@@H]2NC(=O)[C@H](C)NC(=O)CNC(=O)[C@@H]3CCCN3C(=O)[C@@H]3CSSC[C@@H](C(=O)NCC(=O)O)NC(=O)[C@H](Cc4ccc(O)cc4)NC(=O)CNC(=O)[C@H](CC(N)=O)NC(=O)CNC(=O)[C@H](CCCNC(=N)N)NC(=O)[C@H](CSSC[C@H](NC(=O)[C@H](CCCNC(=N)N)NC(=O)[C@H](Cc4ccccc4)NC(=O)[C@H](CC(C)C)NC(=O)[C@H](CC(C)C)NC(=O)[C@H]([C@@H](C)O)NC(=O)CNC(=O)[C@H](CC(C)C)NC(=O)[C@H](CC(=O)O)NC(=O)[C@H]([C@@H](C)O)NC(=O)[C@H](CCCNC(=N)N)NC(=O)CNC(=O)[C@H](CC(N)=O)NC(=O)[C@H](CC(C)C)NC1=O)C(=O)N[C@@H](CCCNC(=N)N)C(=O)N[C@@H](CCCNC(=N)N)C(=O)N[C@@H](CC(=O)O)C(=O)N[C@@H](CO)C(=O)N[C@@H](CC(=O)O)C(=O)N3)NC(=O)[C@H]([C@@H](C)CC)NC2=O [^natLu DOTA knottin, metal not drawn]
[2]
  Effect of DOTA / ^natLu chelation on affinity: did not compromise the high affinity of the tracer
[3]
  Effect of DOTA / ^natLu chelation on affinity: did not compromise the high affinity of the tracer

## CC[C@H](C)[C@@H]1NC(=O)[C@@H](NC(=O)CN)CSSC[C@@H]2NC(=O)[C@H](C)NC(=O)CNC(=O)[C@@H]3CCCN3C(=O)[C@@H]3CSSC[C@@H](C(=O)NCC(=O)O)NC(=O)[C@H](Cc4ccc(O)cc4)NC(=O)CNC(=O)[C@H](CC(N)=O)NC(=O)CNC(=O)[C@H](CCCNC(=N)N)NC(=O)[C@H](CSSC[C@H](NC(=O)[C@H](CCCNC(=N)N)NC(=O)[C@H](Cc4ccccc4)NC(=O)[C@H](CC(C)C)NC(=O)[C@H](CC(C)C)NC(=O)[C@H]([C@@H](C)O)NC(=O)CNC(=O)[C@H](CC(C)C)NC(=O)[C@H](CC(=O)O)NC(=O)[C@H]([C@@H](C)O)NC(=O)[C@H](CCCNC(=N)N)NC(=O)CNC(=O)[C@H](CC(N)=O)NC(=O)[C@H](CC(C)C)NC1=O)C(=O)N[C@@H](CCCNC(=N)N)C(=O)N[C@@H](CCCNC(=N)N)C(=O)N[C@@H](CC(=O)O)C(=O)N[C@@H](CO)C(=O)N[C@@H](CC(=O)O)C(=O)N3)NC(=O)[C@H]([C@@H](C)CC)NC2=O [knottin]
[4]
  Stability and affinity to the receptor in vivo: not compromised in vivo
[4]; in vivo
  Tumor uptake (previous): favorable tumor uptake
[2]
  Effect of DOTA / ^natLu chelation on affinity: did not change upon either the addition of a DOTA chelator moiety or incorporation of natural non-radioactive lutetium
[3]
  Effect of DOTA / ^natLu chelation on affinity: did not change upon either the addition of a DOTA chelator moiety or incorporation of natural non-radioactive lutetium
[5]
  Binding affinity for integrin αvβ6: low single-digit nanomolar binding affinity

Source: paper PMC8200818, “SPECT/CT Imaging, Biodistribution and Radiation Dosimetry of a ^177Lu-DOTA-Integrin αvβ6 Cystine Knot Peptide in a Pancreatic Cancer Xenograft Model” (Frontiers in Oncology, 2021)
